Source: patent US5391571A, “Cholesterol ester hydrolase inhibitors” (priority 1993, dated 1995)

Assays:
[1] = biological target: T1, cholesterol esterase (EC 3.1.1.13) (Bos taurus, UniProt P30122); test: in vitro inhibition of cholesteryl ester formation by cholesterol esterase; type: biochemical, bovine; settings: for IC50: 37° C., cholesterol and oleic acid, cholesterol esterase from bovine pancreas, read-out: IC50 (concentration that inhibits one-half of the ester formation)
T1 construct: purchased Sigma Chemical Company, St. Louis, Mo., USA C-1892; host or cells: bovine pancreas
T1 sequence (P30122 19-597): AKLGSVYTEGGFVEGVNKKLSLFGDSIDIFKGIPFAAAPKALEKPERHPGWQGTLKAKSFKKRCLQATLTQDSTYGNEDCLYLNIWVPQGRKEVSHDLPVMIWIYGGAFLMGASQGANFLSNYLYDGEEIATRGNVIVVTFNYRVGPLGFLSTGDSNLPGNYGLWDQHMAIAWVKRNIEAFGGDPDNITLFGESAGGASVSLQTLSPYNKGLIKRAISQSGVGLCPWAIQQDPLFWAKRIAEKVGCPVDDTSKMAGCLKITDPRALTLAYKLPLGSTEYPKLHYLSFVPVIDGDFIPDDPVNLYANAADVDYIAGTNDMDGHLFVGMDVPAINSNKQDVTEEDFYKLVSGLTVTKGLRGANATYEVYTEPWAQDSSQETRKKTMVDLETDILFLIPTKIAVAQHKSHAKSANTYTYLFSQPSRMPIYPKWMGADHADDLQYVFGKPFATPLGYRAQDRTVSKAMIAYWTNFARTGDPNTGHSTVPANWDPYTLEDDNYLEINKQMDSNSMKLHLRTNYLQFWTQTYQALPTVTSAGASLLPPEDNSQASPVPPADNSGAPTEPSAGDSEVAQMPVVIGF
Description: The ability of the compounds of this invention to inhibit the formation of cholesteryl esters and thereby interfere with and prevent assimilation of cholesterol into the lymphatic system and ultimately the blood stream was established by incubating the compounds at 37° C. with a mixture of cholesterol and oleic acid in the presence of buffered cholesterol esterase [(EC 3.1.1.13) Sigma Chemical Company, St. Louis, Mo., USA, No. C-1892, from bovine pancreas] and measuring the amount of ester formed, according to the procedure of Field, J. of Lipid Research, 25 389 (1984).

cholesterol absorption = test: in vivo cholesterol absorption study, serum radioactivity after oral [4-^14C] cholesterol; settings: Rattus norvegicus, 6 h, normal rats, serum radioactivity at six hours; for ED50: read-out: ED50 (effective dose inhibiting fifty percent of the cholesterol absorption of the control animals)
Description: The in vivo cholesterol absorption studies were conducted in normal rats by oral administration of the compound being tested in propylene glycol and olive oil followed by oral administration of [4-^14 C] cholesterol in propylene glycol and olive oil, otherwise following the procedure of Cayen et al., J. Lipid Res. 20 162 (1979). The serum radioactivity was measured at six hours after dosing. The results of this study are reported in the following Table, where available, as percent decrease compared to control and in terms of the effective dose (ED50) inhibiting fifty-percent of the absorption of the control animals.

[2] = vs control, read-out: Decrease in [^14C] Cholesterol Absorption

Structure (SMILES)	IC50 [1]	further results
CCCCCC(C)NC(=O)Oc1ccc(Oc2ccccc2)cc1 (stereo not shown) [Example 26]	2.9 µM	–
CCCC1CCN(C(=O)Oc2ccc(Oc3ccccc3)cc2)CC1 [Example 45, 4Propyl-1-piperidinecarboxylic acid 4-phenoxyphenyl ester]	0.07 µM	inhibition in vivo at 10 mg/kg (cholesterol absorption; [2]): 41%
CC1(C)CCN(C(=O)Oc2ccc(Oc3ccccc3)cc2)CC1 [Example 38, 4,4-Dimethyl-1piperidinecarboxylic acid 4-phenoxyphenol ester]	0.23 µM	inhibition in vivo at 50 mg/kg (cholesterol absorption; [2]): 86%
CCOC(=O)C1CCN(C(=O)Oc2ccc(Oc3ccccc3)cc2)CC1 [Example 43, 1,4-Piperidinedicarboxylic acid 4-ethyl-1-(4phenoxyphenyl) diester]	4.5 µM	inhibition in vivo at 50 mg/kg (cholesterol absorption; [2]): 60%
O=C(Oc1ccc(Oc2ccccc2)cc1)N1CCN(c2ccccc2)CC1 [Example 6, 4-Phenyl-1-piperazinecarboxylic acid 4-phenoxyphenyl ester]	55 µM	–
O=C(Oc1ccc(Oc2ccccc2)cc1)N1CCOCC1 [Example 7, 4-Morpholinecarboxylic acid 4-phenoxyphenol ester]	85 µM	–
O=C(Oc1ccc(Oc2ccccc2)cc1)N1CCC(CI)CC1 [Example 59, 4-(Iodomethyl)-1-piperidinecarboxylic acid 4-phenoxyphenyl ester]	0.27 µM	–
O=C(NC1CCCCC1)Oc1ccc(Oc2ccccc2)cc1 [Example 13, Cyclohexylcarbamic acid 4-phenoxyphenyl ester]	6.7 µM	–
O=C(Oc1ccc(Oc2ccccc2)cc1)N1CCCCCC1 [Example 40, Hexahydro-1H-azepine-1-carboxylic acid 4-phenoxyphenyl ester]	19 µM	–
O=C(NCC1CCCCC1)Oc1ccc(Oc2ccccc2)cc1 [Example 14, Cyclohexylmethylcarbamic acid 4phenoxyphenyl ester]	9.3 µM	–
CCCCNC(=O)Oc1ccc(Oc2ccc([N+](=O)[O-])cc2)cc1 [Example 20, Butylcarbamic acid 4-(4-nitrophenoxy)phenyl ester]	7.6 µM	inhibition in vivo at 65 mg/kg (cholesterol absorption; [2]): 27%
O=C(Oc1ccc(Oc2ccccc2)cc1)N1CCCC1 [Example 12, 1-Pyrrolidinecarboxylic acid 4-phenoxyphenyl ester]	0.3 µM	inhibition in vivo at 65 mg/kg (cholesterol absorption; [2]): 43%
CC(C)(C)CC(C)(C)NC(=O)Oc1ccc(Oc2ccccc2)cc1 [Example 16, (1,1,3,3-Tetramethylbutyl)carbamic acid 4-phenoxyphenyl ester]	> 100 µM	–
CC(C)C1CCN(C(=O)Oc2ccc(Oc3ccccc3)cc2)CC1 [Example 51, 4-(1-Methylethyl)-1-piperidinecarboxylic acid 4-phenoxyphenyl ester]	0.25 µM	inhibition in vivo at 20 mg/kg (cholesterol absorption; 20 mg/kg, vs control, read-out: Decrease in [^14C] Cholesterol Absorption): 66%
CCC1CCN(C(=O)Oc2ccc(Oc3ccccc3)cc2)CC1 [Example 42, 4-Ethyl-1-piperidinecarboxylic acid 4-phenoxyphenyl ester]	0.05 µM	inhibition in vivo at 50 mg/kg (cholesterol absorption; [2]): 81%
O=C(Oc1ccc(Oc2ccccc2)cc1)N1CCSCC1 [Example 10, 4-Thiomorpholinecarboxylic acid 4-phenoxyphenyl ester]	1.1 µM	inhibition in vivo at 65 mg/kg (cholesterol absorption; [2]): 74%; ED50 (cholesterol absorption): 14 mg/kg
Cc1ccc(Oc2ccc(OC(=O)NC(C)CCCC(C)C)cc2)cc1 (stereo not shown) [Example 24, (1,5-Dimethylhexyl)carbamic acid 4-(4-methylphenoxy)phenyl ester]	5.6 µM	–
CC1CCCN(C(=O)Oc2ccc(Oc3ccccc3)cc2)C1 (stereo not shown) [Example 39, 3-Methyl-1-piperidinecarboxylic acid 4-phenoxyphenyl ester]	0.88 µM	inhibition in vivo at 50 mg/kg (cholesterol absorption; [2]): 73%
CCCCNC(=O)Oc1ccc(Oc2ccccc2)cc1F [Example 28, Butylcarbamic acid 2-fluoro-4-phenoxyphenyl ester]	1.9 µM	–

Structure (SMILES)	IC50 [1]	further results
O=C(Oc1ccc(Oc2ccccc2)cc1)N1CCC(c2ccccc2)CC1 [Example 5, 4-Phenyl1-piperidinecarboxylic acid 4-phenoxyphenl ester]	33 µM	–
CCCCCCCCNC(=O)Oc1ccc(Oc2ccccc2)cc1 [Example 11, Octylcarbamic acid 4phenoxyphenyl ester]	20 µM	–
CCCCNC(=O)Oc1c(C)cc(Oc2ccc(C)cc2)cc1C [Example 22, Butylcarbamic acid 2,6-dimethyl-4-(4-methylphenoxy)phenyl ester]	–	inhibition at 30 µM ([1]; at 30 μM): 20%
O=C(NC12CC3CC(CC(C3)C1)C2)Oc1ccc(Oc2ccccc2)cc1 [Example 15]	17.5 µM	inhibition in vivo at 100 mg/kg (cholesterol absorption; 100 mg/kg, vs control, read-out: Decrease in [^14C] Cholesterol Absorption): 76%
O=C(NCCCCc1ccccc1)Oc1ccc(Oc2ccccc2)cc1 [Example 3, (4-Phenylbutyl)carbamic acid 4-phenoxyphenyl ester]	16 µM	inhibition in vivo at 10 mg/kg (cholesterol absorption; [2]): 70%; ED50 (cholesterol absorption): 6 mg/kg
CC(C)CCCC(C)NC(=O)Oc1ccc(Oc2ccccc2)cc1F (stereo not shown) [Example 37, (1,5-Dimethylhexyl)carbamic acid 2-fluoro-4-phenoxyphenyl ester]	1.4 µM	–
CC(C)CC(C)NC(=O)Oc1ccc(Oc2ccccc2)cc1 (stereo not shown) [Example 18, (1,3-Dimethylbutyl)carbamic acid 4phenoxyphenyl ester]	16.5 µM	–
O=C(Oc1ccc(Oc2ccccc2)cc1)N1CCC(CO)CC1 [Example 56, 4-(Hydroxymethyl)-1-piperidinecarboxylic acid 4-phenoxyphenyl ester]	2.1 µM	–
CCCCNC(=O)Oc1ccc(Oc2ccc(C(C)(C)C)cc2)cc1 [Example 32, Butylcarbamic acid 4-[4-(1,1-dimethylethyl)phenoxy]phenyl ester]	> 100 µM	–
CCCCCCN(CCCCCC)CC1CCN(C(=O)Oc2ccc(Oc3ccccc3)cc2)CC1 [Example 62, 4-(Dihexylaminomethyl)-1-piperidinecarboxylic acid 4-phenoxyphenyl ester]	15 µM	–
CCCCC(CC)NC(=O)Oc1ccc(Oc2ccccc2)cc1 (stereo not shown) [Example 17, (1-Ethylpentyl)carbamic acid 4-phenoxyphenyl ester]	13.3 µM	–
CCCCNC(=O)Oc1ccc(Oc2ccccc2)cc1C(=O)OC [Example 50]	5.1 µM	–
CCCCNC(=O)Oc1ccc(Oc2ccc(Cl)cc2)cc1 [Example 21, Butylcarbamic acid 4-(4-chlorophenoxy)phenyl ester]	6.1 µM	–
CCCCCCNC(=O)Oc1ccc(Oc2ccccc2)cc1 [Example 36, Hexylcarbamic acid 4-phenoxyphenyl ester]	1.7 µM	–
CCCCNC(=O)Oc1ccc(Oc2ccc(OC)cc2)cc1 [Example 29, Butylcarbamic acid 4-(4-methoxyphenoxy)phenyl ester]	13 µM	–
CCCCNC(=O)Oc1ccc(Oc2ccc(C)cc2)cc1 [Example 19, Butylcarbamic acid 4-(4-methylphenoxy)phenyl ester]	5.4 µM	–
CC(C)CCCC(C)NC(=O)Oc1ccc(Oc2ccc(Cl)cc2)cc1 (stereo not shown) [Example 27, (1,5-Dimethylhexyl)carbamic acid 4-(4-chlorophenoxy)phenyl ester]	7.1 µM	–
CC1CCN(C(=O)Oc2ccc(Oc3ccccc3)cc2)CC1 [Example 8, 4-Methyl-1-piperidinecarboxylic acid 4-phenoxyphenyl ester]	–	inhibition in vivo at 65 mg/kg (cholesterol absorption; [2]): 90%; ED50 (cholesterol absorption): 10 mg/kg
COc1ccc(Oc2ccc(OC(=O)NC(C)CCCC(C)C)cc2)cc1 (stereo not shown) [Example 31, (1,5-Dimethylhexyl)carbamic acid 4-(4-methoxyphenoxy)phenyl ester]	26 µM	–
